Among the data in ChEMBL document CHEMBL2074492, “Selective substrates for non-neuronal monoamine transporters” (Mol Pharmacol, 1999) are Activity, Ki and Km values, retold here.

In data set [1] the target is T1, Solute carrier family 22 member 2 (Rattus norvegicus, UniProt Q9R0W2).
T1 sequence (Q9R0W2 whole entry): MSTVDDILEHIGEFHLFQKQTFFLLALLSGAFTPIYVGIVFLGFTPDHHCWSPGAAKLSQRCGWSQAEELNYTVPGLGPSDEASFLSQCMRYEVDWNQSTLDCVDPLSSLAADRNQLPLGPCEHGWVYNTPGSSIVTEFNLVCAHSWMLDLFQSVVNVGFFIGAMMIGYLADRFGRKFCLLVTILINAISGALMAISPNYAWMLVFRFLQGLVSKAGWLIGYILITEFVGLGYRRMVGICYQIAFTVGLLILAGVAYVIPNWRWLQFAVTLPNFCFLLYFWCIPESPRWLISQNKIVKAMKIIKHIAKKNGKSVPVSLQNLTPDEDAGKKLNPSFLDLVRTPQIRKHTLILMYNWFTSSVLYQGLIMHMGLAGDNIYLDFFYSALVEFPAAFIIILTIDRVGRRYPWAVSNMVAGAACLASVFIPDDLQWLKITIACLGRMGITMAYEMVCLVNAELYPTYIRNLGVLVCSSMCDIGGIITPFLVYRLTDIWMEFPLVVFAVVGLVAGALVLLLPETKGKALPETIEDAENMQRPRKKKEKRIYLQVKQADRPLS
In words: (§1) TP_TRANSPORTER: uptake in OCT2-expressing HEK293 cells. The class given is functional, cell-based. The conditions noted are these: human.

The target in data set [2] is T1, Solute carrier family 22 member 2. In words: TP_TRANSPORTER: inhibition of MPP+ uptake in OCT2-expressing HEK293 cells. The class given is functional, cell-based.
The target of data set [3] is T2, Solute carrier family 22 member 3 (Homo sapiens, UniProt O75751).
T2 sequence (O75751 whole entry): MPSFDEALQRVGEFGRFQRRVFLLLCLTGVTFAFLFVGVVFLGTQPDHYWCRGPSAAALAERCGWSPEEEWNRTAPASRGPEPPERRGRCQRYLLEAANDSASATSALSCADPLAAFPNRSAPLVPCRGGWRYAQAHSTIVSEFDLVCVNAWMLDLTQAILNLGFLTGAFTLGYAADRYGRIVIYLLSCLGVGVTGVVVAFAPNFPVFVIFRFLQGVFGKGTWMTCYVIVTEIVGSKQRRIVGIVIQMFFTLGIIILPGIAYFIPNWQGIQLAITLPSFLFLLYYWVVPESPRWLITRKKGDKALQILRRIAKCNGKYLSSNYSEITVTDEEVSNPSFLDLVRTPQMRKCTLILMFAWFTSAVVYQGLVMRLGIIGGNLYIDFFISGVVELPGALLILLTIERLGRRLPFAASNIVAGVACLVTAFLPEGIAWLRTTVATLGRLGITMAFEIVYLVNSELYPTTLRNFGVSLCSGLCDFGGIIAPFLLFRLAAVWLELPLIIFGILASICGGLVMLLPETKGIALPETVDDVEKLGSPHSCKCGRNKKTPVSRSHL
In words: TP_TRANSPORTER: inhibition of MPP+ uptake in OCT3-expressing HEK293 cells.

Data set [4] concerns the target T3, Solute carrier family 22 member 1 (Rattus norvegicus, UniProt Q63089).
T3 sequence (Q63089 whole entry): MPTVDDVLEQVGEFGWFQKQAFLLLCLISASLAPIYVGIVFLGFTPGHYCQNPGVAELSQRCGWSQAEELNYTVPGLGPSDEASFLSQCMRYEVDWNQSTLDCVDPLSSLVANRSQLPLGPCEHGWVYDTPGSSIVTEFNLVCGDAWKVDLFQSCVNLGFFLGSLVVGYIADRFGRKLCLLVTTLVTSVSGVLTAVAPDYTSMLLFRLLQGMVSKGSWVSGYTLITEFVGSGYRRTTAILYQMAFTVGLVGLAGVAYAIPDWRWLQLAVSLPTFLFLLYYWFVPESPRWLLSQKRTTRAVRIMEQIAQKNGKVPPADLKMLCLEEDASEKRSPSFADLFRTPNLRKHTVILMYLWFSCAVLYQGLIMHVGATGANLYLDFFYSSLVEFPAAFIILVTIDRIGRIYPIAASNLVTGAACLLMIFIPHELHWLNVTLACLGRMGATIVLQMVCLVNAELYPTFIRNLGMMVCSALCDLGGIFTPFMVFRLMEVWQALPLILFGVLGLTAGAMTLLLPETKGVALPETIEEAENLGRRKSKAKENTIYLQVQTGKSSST
Description: TP_TRANSPORTER: inhibition of MPP+ uptake in OCT1-expressing HEK293 cells.

Substrate in data set [5]: C[n+]1ccc(-c2ccccc2)cc1
Described as §1. The class given is functional, cell-based.

Substrate in data set [6]: N=C(N)N
The data set is described as §1. The class given is functional, cell-based.

For the molecule `CN1CC(=O)NC1=N` [CREATININE], the Activity entry in data set [1] was “substrate [+]”.
Turning to `N=C(N)N` [GUANIDINE], the affinity in data set [2], expressed as Ki, was 280 µM.
As to `NCCc1c[nH]cn1` [HISTAMINE], the results for the Ki in data set [3], in data set [2] and in data set [4] were 140 µM, 390 µM and 1400 µM, respectively.
Turning to `CC[N+](CC)(CC)CC` [TETRYLAMMONIUM], the Activity entry in data set [1] is “substrate [+]”.

B1: Solute carrier family 22 member 2 (Rattus norvegicus) (protein)
chain: T1 sequence (Q9R0W2 whole entry)
Regarding B1, the Km (usually the substrate concentration at which the rate is half of its maximum) in data set [5] turned out to be 9.4 µM; in data set [6] it was 730 µM.
